From paper PMC6364417, “Kinase inhibitor library screening identifies synergistic drug combinations effective in sensitive and resistant melanoma cells” (Journal of Experimental & Clinical Cancer Research : CR, 2019)

Tests used:
Assay in all cases: Kinase inhibitor library screening, PrestoBlue cell viability, 1 or 10 μM, 72 h
[1] = system: 501Mel-XP cells (Vemurafenib-resistant); settings: 501Mel XP
Description: (§1) After 72 h of treatment, cell viability was assessed using the PrestoBlue Cell Viability Reagent (ThermoFisher Scientific). Measurements were performed with the CLARIOstar Monochromator microplate reader (BMG Labtech).
(§2) Kinase inhibitor library screening. […] Each cell line was treated in its sensitive form (parental), and also as 2 resistant derivatives, which were made resistant to either Vemurafenib (XP) or Dabrafenib (GP). Drugs were added at 2 different concentrations, 1 and 10 μM, for 72 h and cell viability was assessed using the PrestoBlue Cell Viability assay. Results are depicted as % viability compared to untreated cells. Each cell line was analyzed at least in duplicate. […] (XLSX 95 kb)

[2] = system: IGR37-GP cells (Dabrafenib-resistant); settings: IGR37 GP
Description: as §1, §2

[3] = system: A375-GP cells (Dabrafenib-resistant); settings: A375 GP
Description: as §1, §2

[4] = system: A375-XP cells (Vemurafenib-resistant); settings: A375 XP
Description: as §1, §2

[5] = system: 501Mel-GP cells (Dabrafenib-resistant); settings: 501Mel GP
Description: as §1, §2

A375 cells (parental) = settings: A375 Parental
Description: as §1, §2

IGR37 cells (parental) = settings: IGR37 Parental
Description: as §1, §2

[6] = system: IGR37-XP cells (Vemurafenib-resistant); settings: IGR37 XP
Description: as §1, §2

501Mel cells (parental) = settings: 501Mel Parental
Description: as §1, §2

SMILES	Cell viability in kinase inhibitor library screening, 501Mel XP, 1μΜ ([1]; 1μΜ, 72 h, in %)	Cell viability in kinase inhibitor library screening, 501Mel XP, 10μΜ ([1]; 10μΜ, 72 h, in %)	Cell viability in kinase inhibitor library screening, IGR37 GP, 10μΜ ([2]; 10μΜ, 72 h) [%]	Cell viability in kinase inhibitor library screening, IGR37 GP, 1μΜ ([2]; 1μΜ, 72 h, in %)	Cell viability in kinase inhibitor library screening, A375 GP, 1μΜ ([3]; 1μΜ, 72 h)	Cell viability in kinase inhibitor library screening, A375 GP, 10μΜ ([3]; 10μΜ, 72 h)	Cell viability in kinase inhibitor library screening, A375 XP, 1μΜ ([4]; 1μΜ, 72 h)	Cell viability in kinase inhibitor library screening, A375 XP, 10μΜ ([4]; 10μΜ, 72 h)	Cell viability in kinase inhibitor library screening, 501Mel GP, 1μΜ ([5]; 1μΜ, 72 h, in %)	Cell viability in kinase inhibitor library screening, 501Mel GP, 10μΜ ([5]; 10μΜ, 72 h, in %)	Cell viability in kinase inhibitor library screening, A375 Parental, 10μΜ (A375 cells (parental); 10μΜ, 72 h)	Cell viability in kinase inhibitor library screening, A375 Parental, 1μΜ (A375 cells (parental); 1μΜ, 72 h)	Cell viability in kinase inhibitor library screening, IGR37 Parental, 1μΜ (IGR37 cells (parental); 1μΜ, 72 h, in %)	Cell viability in kinase inhibitor library screening, IGR37 Parental, 10μΜ (IGR37 cells (parental); 10μΜ, 72 h, in %)	Cell viability in kinase inhibitor library screening, IGR37 XP, 10μΜ ([6]; 10μΜ, 72 h) [%]	Cell viability in kinase inhibitor library screening, IGR37 XP, 1μΜ ([6]; 1μΜ, 72 h, in %)	Cell viability in kinase inhibitor library screening, 501Mel Parental, 1μΜ (501Mel cells (parental); 1μΜ, 72 h, in %)	Cell viability in kinase inhibitor library screening, 501Mel Parental, 10μΜ (501Mel cells (parental); 10μΜ, 72 h, in %)	further results
COc1cc(OC)c(/C=C/S(=O)(=O)Cc2ccc(OC)c(NCC(=O)O)c2)c(OC)c1 [Rigosertib (ON-01910)]	9.5	14.7	61.1	62.5	19.7	16.9	18.3	9.8	16.6	20.3	15.2	18.2	11.0	15.4	35.5	55.9	20.3	26.0	–
Cn1cc(C2=C(c3cn(C4CCN(Cc5ccccn5)CC4)c4ccccc34)C(=O)NC2=O)c2ccccc21 [Enzastaurin (LY317615)]	85.4	48.1	58.7	100.0	97.4	58.1	103.5	66.7	92.5	54.6	55.3	99.1	–	82.6	31.7	98.3	78.4	63.8	–
c1cncc(CN2CCC(n3ncc4c(N5CCOCC5)nc(-c5ccc6[nH]ccc6c5)nc43)CC2)c1 [WAY-600]	56.9	1.0	18.4	95.3	82.4	21.9	76.7	16.9	72.3	4.3	22.3	84.4	93.5	26.3	4.5	84.1	86.8	3.0	–
Cc1csc(-c2nnc(Nc3ccc(Oc4ncccc4-c4ccnc(N)n4)cc3)c3ccccc23)c1 [AMG 900]	–	–	–	–	–	–	–	–	–	–	–	–	–	–	–	–	–	–	cell viability (kinase inhibitor library screening) ([1]; 1μΜ, 72 h): 77.2%; cell viability (kinase inhibitor library screening) ([1]; 10μΜ, 72 h): 59.1%; cell viability (kinase inhibitor library screening) ([2]; 10μΜ, 72 h): 79.9%; cell viability (kinase inhibitor library screening) ([3]; 1μΜ, 72 h): 44.4%; cell viability (kinase inhibitor library screening) ([3]; 10μΜ, 72 h): 34.7%; cell viability (kinase inhibitor library screening) ([4]; 1μΜ, 72 h): 52.6%; cell viability (kinase inhibitor library screening) ([4]; 10μΜ, 72 h): 47.5%; cell viability (kinase inhibitor library screening) ([5]; 1μΜ, 72 h): 90.4%; cell viability (kinase inhibitor library screening) ([5]; 10μΜ, 72 h): 60.6%; cell viability (kinase inhibitor library screening) (A375 cells (parental); 10μΜ, 72 h): 30.4%; cell viability (kinase inhibitor library screening) (A375 cells (parental); 1μΜ, 72 h): 46.4%; cell viability (kinase inhibitor library screening) (IGR37 cells (parental); 1μΜ, 72 h): 94.6%; cell viability (kinase inhibitor library screening) (IGR37 cells (parental); 10μΜ, 72 h): 78.1%; cell viability (kinase inhibitor library screening) ([6]; 1μΜ, 72 h): 100.0%; cell viability (kinase inhibitor library screening) ([6]; 10μΜ, 72 h): 66.5%; cell viability (kinase inhibitor library screening) (501Mel cells (parental); 1μΜ, 72 h): 87.5%; cell viability (kinase inhibitor library screening) (501Mel cells (parental); 10μΜ, 72 h): 70.0%
Cc1cc2c(F)c(Oc3ncnn4cc(OC[C@@H](C)OC(=O)[C@H](C)N)c(C)c34)ccc2[nH]1 [Brivanib alaninate (BMS-582664)]	–	–	–	–	–	–	–	–	–	–	–	–	–	–	–	–	–	–	cell viability (kinase inhibitor library screening) ([1]; 1μΜ, in %): 97.0; cell viability (kinase inhibitor library screening) ([1]; 10μΜ, in %): 83.1; cell viability (kinase inhibitor library screening) ([2]; 1μΜ, in %): 99.8; cell viability (kinase inhibitor library screening) ([2]; 10μΜ, in %): 95.3; cell viability (kinase inhibitor library screening) ([3]; 1μΜ, in %): 98.8; cell viability (kinase inhibitor library screening) ([3]; 10μΜ, in %): 80.1; cell viability (kinase inhibitor library screening) ([4]; 1μΜ, in %): 105.2; cell viability (kinase inhibitor library screening) ([4]; 10μΜ, in %): 81.3; cell viability (kinase inhibitor library screening) ([5]; 1μΜ, in %): 107.2; cell viability (kinase inhibitor library screening) ([5]; 10μΜ, in %): 88.2; cell viability (kinase inhibitor library screening) (A375 cells (parental); 1μΜ, in %): 104.1; cell viability (kinase inhibitor library screening) (A375 cells (parental); 10μΜ, in %): 82.8; cell viability (kinase inhibitor library screening) (IGR37 cells (parental); 1μΜ, in %): 107.1; cell viability (kinase inhibitor library screening) (IGR37 cells (parental); 10μΜ, in %): 96.2; cell viability (kinase inhibitor library screening) ([6]; 1μΜ, in %): 99.9; cell viability (kinase inhibitor library screening) ([6]; 10μΜ, in %): 74.9; cell viability (kinase inhibitor library screening) (501Mel cells (parental); 1μΜ, in %): 99.4; cell viability (kinase inhibitor library screening) (501Mel cells (parental); 10μΜ, in %): 91.7
